Assay results: US10849966B2, “Methods for treating netosis and neutrophil activation” (TRUSTEES OF BOSTON UNIVERSITY, priority 2017, dated 2020)
Where “and” joins values, the source holds several entries; their conditions need not be identical. Equal values may be shown once.

How the values were obtained:
[1] = biological target: T1, DEspR on intact human cells (Homo sapiens, UniProt B0L3A2); assay: hu6g8 binding to DEspR on intact human cells; details: done in triplicate
T1 construct: endogenous in cells; host or cells: intact human cells / 'DEspR+ human cells'
T1 sequence (B0L3A2 1-85): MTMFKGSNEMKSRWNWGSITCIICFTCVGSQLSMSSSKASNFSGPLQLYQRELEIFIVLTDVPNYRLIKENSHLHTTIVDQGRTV
From the text: (§1) FIGS. 17A-17C depict anti-DEspR-mab (hu6g8 mab). FIG. 17A depicts a diagram of DEspR, murine precursor mabs and humanized IgG and IgG4 mabs. Hu6g8 is notated as 6g8g7-hu-IgG4 raised against epitope 2, spanning the putative binding domain.
Described herein is the development, characterization, and validation of a fully humanized anti-DEspR mAb with a S228P hinge-stabilized IgG4/kappa FC region, designated herein as hu-6g8 or […]. The hu-6g8 was designed for high binding affinity to DEspR+ human cells and inhibition of activated neutrophil survival. hu-6g8 is reactive in all species, having identical epitopes in human, primates and rodents, which facilitates preclinical and clinical studies using the therapeutic lead. […] (FIG. 6). Through recombinant DNA technology, hu-6g8 was designed with optimal biophysical properties via: a) avoidance of T-cell epitopes for low immunogenicity—‘deimmunized’, b) optimization of heavy and light chain interactions for stability of variable domains, and c) exclusion of destabilizing post-translational modification sites [deamidation, oxidation, acid-lability, inappropriate N-glycosylation, isomerization and pyroglutamate formation].
Described herein are the advantages of anti-DEspR mAb targeted AECs. DEspR, the dual endothelin1/signal peptide receptor,^9 is a validated target on human activated neutrophils and NETs. […]

[2] = tested on: activated neutrophils; assay: dose-response survival assay of activated neutrophils (Trypan blue dye exclusion); format: cell-based; details: live cells counted by Trypan blue dye exclusion; listed as 6g8-humab; read-out: IC50, inhibition of activated neutrophil survival
From the text: FIG. 6 depicts a graph comparison of functional activity of anti-DEspR fully humanized 6g8 mAb, 6g8-humab, and prototype murine anti-DEspR 6g8 mAb, 6g8-mumab.
as §1
Described herein are the advantages of anti-DEspR mAb targeted AECs. DEspR, the dual endothelin1/signal peptide receptor,^9 is a validated target on human activated neutrophils and NETs. Hu6g8 binds human activated neutrophils (FIG. 18A) and NETs (FIG. 18B), as confirmed by Western Blot analysis of DEspR protein in human kidney (K), and activated neutrophil samples, act-Ns (FIG. 18C). Humanized anti-DEspR-mab (hu6g8 mab) is an ideal targeting moiety. Hu6g8 is the multi-species Human/NHPrimate/Rat reactive humanized-deimmunized anti-DEspR-mab with a hinge-stabilized IgG4S228P/kappa Fc region (FIG. 17A) to avoid (ADCC-antibody dependent cell-mediated cytotoxicity, CDC-complement dependent cytotoxicity), and to eliminate loss of targeting upon Fab arm exchange typical of native IgG4 isotype. […] Through recombinant DNA technology, the antibody design incorporates: a) avoidance of T-cell epitopes for low immunogenicity; b) optimization of heavy and light chain interactions for stability of variable domains; and, c) exclusion of destabilizing post-translational modification sites [e.g., deamidation, oxidation]. The targeting of DEspR^+ NETs, but sparing of DEspR(−) quiescent neutrophils via the anti-DEspR mAb is also novel. […] The use of human neutrophil-elastase cleavable linker is advantageous as this connector-peptide can be added by recombinant technology and HNE is enriched on NETs and actually a reason for the injurious properties of NETs. HNE is desirable for local therapeutic delivery [Owen C A, Campbell E J. J Leukocyte Biol 1999, 65 (2) 137-150], has specificity for small uncharged amino acids particularly alanine (A) and valine (V) [Meers P. Adv Drug Delivery Rev. 2001. 53 (3) 265-272]. […] The advantages of all three in an AEC is novel and robust as the targeted delivery and release of DNAse 1 on NETs can attain in vivo efficacy of what has been shown in vitro, the induction of macrophage uptake-and-clearance of NETs upon DNAse 1 digest of NETs DNA. In summary, targeting the intravascular NETs sites. The humanized anti-DEspR-mab with a hinge-stabilized IgG4/kappa Fc region to avoid Fab arm exchange in vivo and ensuing loss of targeting was selected. Additionally, this avoids immune effector functions of IgG1 mAbs (ADCC, CDC), which would worsen endothelial injury. […]

[3] = tested on: Panc1-cancer stem cell pancreatic carcinomatosis xenograft; assay: CSC-derived pancreatic carcinomatosis xenograft tumor model in nude rats, comorbidities; format: in vivo, rat; details: treatment start 3 weeks after Panc1-CSC injection; vs untreated
From the text: FIG. 39 depicts a representative image of control untreated tumor rat (left panel) and ABTM-468 treated rat (right panel). Control rat was euthanized due to distress, treated rat was euthanized to obtain age- and tumor-duration-matched tumors. The xenograft tumor model was developed from Panc1-cancer stem cells injected into the peritoneal space 3 weeks prior to the start of treatment. T, tumors; GB, gall bladder.

Question: Which results are given for “hu-6g8: fully humanized anti-DEspR mAb with a S228P hinge-stabilized IgG4/kappa FC region”?
Answer: EC50 [1]: < 5 nM and 4.2 nM; IC50 [2]: < 8 nM and 7.7 nM; cancer comorbidities (gut ischemia, ascites, gut dysfunction) [3]: reduced gut ischemia, serous or hemorrhagic ascites, distended gut, and ischemic-hemorrhagic gut (black gut) and gut dysfunction
